# According to BindingDB's records for doi:10.1016/j.bmcl.2016.12.066 (China Pharmaceutical University, 2017):
# pIC50: −log10 of the molar value.
# Molecular target: T1, Tissue factor (Homo sapiens, UniProt P13726)
# Assay: ChEBML_1654816
# Method: (§1) Inhibition of LPS-induced tissue factor procoagulant activity in human THP1 cells preincubated for 1 hr followed by LPS addition measured after 5 hrs using factor 10a chromogenic substrate in presence of prothrombin complex
# T1 sequence (P13726 whole entry): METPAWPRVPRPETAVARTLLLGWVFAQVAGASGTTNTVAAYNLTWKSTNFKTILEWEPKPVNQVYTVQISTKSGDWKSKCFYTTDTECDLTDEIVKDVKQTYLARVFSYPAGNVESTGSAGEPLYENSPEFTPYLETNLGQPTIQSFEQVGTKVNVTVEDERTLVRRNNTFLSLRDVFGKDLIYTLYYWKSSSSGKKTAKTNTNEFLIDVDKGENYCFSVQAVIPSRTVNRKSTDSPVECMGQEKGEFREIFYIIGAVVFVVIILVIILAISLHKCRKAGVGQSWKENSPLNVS
row,Compound,pIC50
1,CC1(C)CC[C@]2(C(=O)O[C@@H]3O[C@H](CO)[C@@H](O)[C@H](O)[C@H]3O)[C@H](O)C[C@]3(C)C(=CC[C@@H]4[C@@]5(C)CC[C@H](O)[C@](C)(CO)[C@@H]5CC[C@]43C)[C@@H]2C1,9.10
2,C=C(C)[C@@H]1CC[C@]2(C(=O)O[C@@H]3O[C@H](CO)[C@@H](O)[C@H](O)[C@H]3O)CC[C@]3(C)C(CC[C@@H]4[C@@]5(C)CC[C@H](O[C@@H]6O[C@H](CO)[C@@H](O)[C@H](O)[C@H]6O)C(C)(C)[C@@H]5CC[C@]43C)[C@H]12 (some centres undefined),9.19
3,COc1cc(/C=C/C(=O)CC(=O)/C=C/c2ccc(O)c(OC)c2)ccc1O [CHEBI:3962],7.89
4,CC1(C)CC[C@]2(C(=O)O)[C@H](O)C[C@]3(C)C(=CC[C@@H]4[C@@]5(C)CC[C@H](O)C(C)(C)[C@@H]5CC[C@]43C)[C@@H]2C1 [CHEBI:4747],10.27
5,CC1(C)CC[C@]2(C(=O)O[C@@H]3O[C@H](CO)[C@@H](O)[C@H](O)[C@H]3O)CC[C@]3(C)C(=CC[C@@H]4[C@@]5(C)CC[C@H](O)[C@@](C)(CO)[C@@H]5CC[C@]43C)[C@@H]2C1 [CHEBI:67947],9.55
6,CC1(C)CC[C@]2(C(=O)O)CC[C@]3(C)C(=CC[C@@H]4[C@@]5(C)CC[C@H](O[C@@H]6O[C@H](CO)[C@@H](O)[C@H](O)[C@H]6O)C(C)(C)[C@@H]5CC[C@]43C)[C@@H]2C1 [Vitalboside A],10.02

# Molecular target: T1, Tissue factor
# Assay: as §1
row,Compound,pIC50
1,C=C(C)[C@@H]1CC[C@]2(C(=O)O)CC[C@]3(C)C(CC[C@@H]4[C@@]5(C)CC[C@H](O)[C@@](C)(CO)[C@@H]5CC[C@]43C)[C@H]12 (some centres undefined),9.66
2,C=C(C)[C@@H]1CC[C@]2(C(=O)O[C@@H]3O[C@H](CO)[C@@H](O)[C@H](O)[C@H]3O)CC[C@]3(C)C(CC[C@@H]4[C@@]5(C)CC[C@H](O)C(C)(C)[C@@H]5CC[C@]43C)[C@H]12 (some centres undefined),10.11
3,CC1(C)CC[C@]2(C(=O)O[C@@H]3O[C@H](CO)[C@@H](O)[C@H](O)[C@H]3O)[C@H](O)C[C@]3(C)C(=CC[C@@H]4[C@@]5(C)CC[C@H](O)C(C)(C)[C@@H]5CC[C@]43C)[C@@H]2C1,7.96
4,CC1(C)CC[C@]2(C(=O)O[C@@H]3O[C@H](CO)[C@@H](O)[C@H](O)[C@H]3O)[C@H](O)C[C@]3(C)C(=CC[C@@H]4[C@@]5(C)CC[C@H](O[C@@H]6O[C@H](CO)[C@@H](O)[C@H](O)[C@H]6O)C(C)(C)[C@@H]5CC[C@]43C)[C@@H]2C1,8.02
5,CC1(C)CC[C@]2(C(=O)O[C@@H]3O[C@H](CO)[C@@H](O)[C@H](O)[C@H]3O)CC[C@]3(C)C(=CC[C@@H]4[C@@]5(C)CC[C@H](O[C@@H]6O[C@H](CO)[C@@H](O)[C@H](O)[C@H]6O)C(C)(C)[C@@H]5CC[C@]43C)[C@@H]2C1,7.80
6,CC1(C)CC[C@]2(C(=O)O[C@@H]3O[C@H](CO)[C@@H](O)[C@H](O)[C@H]3O)CC[C@]3(C)C(=CC[C@@H]4[C@@]5(C)CC[C@H](O)[C@](C)(CO)[C@@H]5CC[C@]43C)[C@@H]2C1,8.19
7,C=C(C)[C@@H]1CC[C@]2(C(=O)O[C@@H]3O[C@H](CO)[C@@H](O)[C@H](O)[C@H]3O)CC[C@]3(C)C(CC[C@@H]4[C@@]5(C)CC[C@H](O)[C@@](C)(CO)[C@@H]5CC[C@]43C)[C@H]12 (some centres undefined),10.55
8,CC1(C)CC[C@]2(C(=O)O)CC[C@]3(C)C(=CC[C@@H]4[C@@]5(C)CC[C@H](O)[C@](C)(CO)[C@@H]5CC[C@]43C)[C@@H]2C1,8.89
9,CC1(C)CC[C@]2(C(=O)O)CC[C@]3(C)C(=CC[C@@H]4[C@@]5(C)CC[C@H](O)[C@@](C)(CO)[C@@H]5CC[C@]43C)[C@@H]2C1 [4-Epi-Hederagenin],9.66
10,CC1(C)CC[C@]2(C(=O)O[C@@H]3O[C@H](CO)[C@@H](O)[C@H](O)[C@H]3O)CC[C@]3(C)C(=CC[C@@H]4[C@@]5(C)CC[C@H](O)C(C)(C)[C@@H]5CC[C@]43C)[C@@H]2C1 [CHEBI:67985],10.46
11,CC1(C)CC[C@]2(C(=O)O)CC[C@]3(C)C(=CC[C@@H]4[C@@]5(C)CC[C@H](O)C(C)(C)[C@@H]5CC[C@]43C)[C@@H]2C1 [Oleanolic acid (OA)(Compound 1)],8.30
12,CC1(C)CC[C@]2(C(=O)O)CC[C@]3(C)C(=CC[C@@H]4[C@@]5(C)CCC(=O)C(C)(C)[C@@H]5CC[C@]43C)[C@@H]2C1 [Oleanonic Acid],9.66
13,"CC1(C)CC[C@]2(C(=O)OCc3ccccc3)CC[C@]3(C)C(=CC[C@@H]4[C@@]5(C)CC[C@H](O)C(C)(C)[C@@H]5CC[C@]43C)[C@@H]2C1 [benzyl (4aS,6aS,6bR,8aR,10S,12aR,12bR,14bS)-10-hydroxy-2,2,6a,6b,9,9,12a-heptamethyl-1,3,4,5,6,7,8,8a,10,11,12,12b,13,14b-tetradecahydropicene-4a-carboxylate (Compound 4)]",8.33
